Results reported in publication PMC12203577, “Molecular Basis of Pseudomonas syringae pv actinidiae Levansucrase Inhibition by a Multivalent Iminosugar” (Journal of Agricultural and Food Chemistry, 2025).
Where “and” joins values, the source holds several entries; their conditions need not be identical. Identical values can stand only once.

How the values were obtained:
Lscβ = biological target: T1, Lscβ (Pseudomonas syringae pv. actinidiae, UniProt A0A2V0R8Q9); test: Sucrose hydrolysis assay on recombinant Lscβ (DNS glucose quantification); format: biochemical, Pseudomonas syringae pv actinidiae biovar 3 (Psa3); settings: for % Residual activity (sucrose hydrolysis), Lscβ: 100 μM iminosugar; for % Residual activity (sucrose hydrolysis), Lscβ / IC50: 60 mM sucrose
T1 construct: 6His-tag (TEV-cleavable) (cleaved yes); made in house; host or cells: E. coli BL21 (DE3)
Procedure: (§1) Lscβ and Lscγ were produced and purified as reported by Luti et al. 2021. Briefly, the lscβ and lscγ genes of Psa3 KL103 were cloned in the pNIC28-Bsa4 plasmid and used to transform E. coli BL21 (DE3) cells (New England Biolabs). At A 600 (absorbance at 600 nm) = 0.6, protein expression was induced by 0.4 mM IPTG for 20 h at 18 °C. Then, cells were harvested by […], and recombinant proteins were purified using IMAC Sepharose High Performance (Ge Healthcare) charged with Ni^2+. Subsequently, the proteins were subjected to TEV (Tobacco Etch Virus protease) treatment to remove the 6His-tag and further purified by gel chromatography on a HiLoad 16/600 Superdex 200 pg column driven by an Akta Pure 25 L system (GE Healthcare, Waukesha, WI, USA). Pure proteins were stored in 10 mM Tris/HCl at pH 7.0 at −80 °C until further analysis.
The enzymatic assays to detect the inhibitory potential of the compounds on sucrose hydrolysis activity of Lscβ and Lscγ were performed according to Luti et al. 2021 in a total volume of 100 μL, using a Bis/Tris buffer (50 mM, pH 7.0). […] After the reactions were stopped, glucose concentration was measured using the DNS (3,5-dinitrosalicylic acid) method to determine spectrophotometrically the inhibitory activity of each compound. The enzymatic activity, measured as μmol/min·mL, was expressed as %residual enzymatic activity=[Ai/Ac]×100 , where A i is the absorbance of the samples with the inhibitors and A c is the absorbance of the control.
(§2) The inhibition levels of compounds 1–4 were analyzed by measuring their IC50. To quantify the IC50 values, we set up different enzymatic reactions at various concentrations of the inhibitor, and we monitored the effects of such concentrations on the enzymatic activity. The assay system was prepared as described above using a Bis/Tris buffer at pH 7.0 and 60 mM sucrose as the substrate. The inhibitor concentrations tested for both enzymes were 0, 0.01, 0.1, 0.5, 1, 10, 25, 50, 100, 200, 400, and 800 μM. Glucose released by the two enzymes was quantified using the DNS method and a microplate spectrophotometer. IC50 was defined as the concentration of a compound causing 50% inhibition, and it was calculated by drawing a dose–response graph for each compound using GraphPad Prism version 8.0 for Windows, GraphPad Software, San Diego, California, USA (www.graphpad.com). The response was expressed on the Y-axis as a percentage of enzymatic activity, and the […].
(§3) The inhibitory mechanism of TPIS (3) was determined by studying the dependence between the main kinetic parameters (K Mapp and V maxapp) and the inhibitor concentrations. Data obtained were fitted using the Michaelis–Menten equation and a nonlinear fitting software. Then, data were analyzed using the double reciprocal plot (Lineweaver–Burk method). Secondary plots were used to calculate the K i values by using GraphPad Prism version 8.0. In detail, the inhibitory mechanism of TPIS (3) was analyzed using 0, 25, 60, and 100 μM inhibitors for Lscβ and 0, 10, 25, and 100 μM for Lscγ. For each concentration, we set the sucrose concentration to 0, 10, 30, 50, 100, 200, 400, and 600 mM, and reactions were performed as previously described using an enzyme concentration of 0.02 μg/μL. After the reactions were stopped, glucose from enzymatic hydrolysis was quantified using the DNS method.

Lscγ [1] = biological target: T2, Lscγ (Pseudomonas syringae pv. actinidiae, UniProt A0A2V0R8Y2); test: Sucrose hydrolysis assay on recombinant Lscγ (DNS glucose quantification); format: biochemical, Pseudomonas syringae pv actinidiae biovar 3 (Psa3); settings: for % Residual activity (sucrose hydrolysis), Lscγ: 100 μM iminosugar; for % Residual activity (sucrose hydrolysis), Lscγ / IC50: 60 mM sucrose
T2 construct: 6His-tag (TEV-cleavable) (cleaved yes); made in house; host or cells: E. coli BL21 (DE3)
Procedure: as §1
The enzymatic assays to detect the inhibitory potential of the compounds on sucrose hydrolysis activity of Lscβ and Lscγ were performed according to Luti et al. 2021 in a total volume of 100 μL, using a Bis/Tris buffer (50 mM, pH 7.0). The experiments were performed at an enzyme concentration of 0.03 μg/μL with 60 mM sucrose and a final inhibitor concentration (compounds 1–4) of 100 μM, on a 10-min time frame. After the reactions were stopped, glucose concentration was measured using the DNS (3,5-dinitrosalicylic acid) method to determine spectrophotometrically the inhibitory activity of each compound. The enzymatic activity, measured as μmol/min·mL, was expressed as %residual enzymatic activity=[Ai/Ac]×100 , where A i is the absorbance of the samples with the inhibitors and A c is the absorbance of the control.
as §2, §3

[2] = tested on: CFBP1390 whole cell lysate; test: Macroscopic levan synthesis by lysate on agar sucrose plate, CFBP1390; format: biochemical, P. syringae pv phaseolicola; settings: 100 μM, 72 h
Procedure: (§4) To extract total protein, cell pellets were resuspended in 1 mL of ice-cold RIPA Buffer with Protease Inhibitors Cocktail, and cells were lysed by sonication using a Fisher Scientific Model 120 Sonic Dismembrator. The sonication step was carried out on ice with three pulses of 15 s at 30% amplitude, each followed by 30 s cooldown. Sonicated samples were cleared by centrifugation for 15 min at 15,000 × g at 4 °C. The pellet was discarded, while the supernatant was collected and stored at −20 °C for further analysis. The hydrolysis enzymatic reaction was carried out as previously described with 60 mM sucrose and 7 μL of cell lysate for 1.5 h. After the samples were boiled, glucose was quantified using the DNS method. For macroscopic evaluation of levan synthesis inhibition, a 10 μL drop of lysates was applied on an agar sucrose (5% w/v) plate alone or with 100 μM TPIS (3). A picture was taken after 72 h at 4 °C.

[3] = tested on: CFBP8414 whole cell lysate; test: Sucrose hydrolysis by whole cell lysate, CFBP8414; format: biochemical, P. syringae pv actinidiae biovar 5; settings: 100 μM, 60 mM sucrose
Procedure: (§5) The strains CFBP8414 (P. syringae pv actinidiae biovar 5) and CFBP1390 (P. syringae pv phaseolicola) were purchased from the CIRM-CFBP French Collection for Plant Associated Bacteria, while KL103 (P. syringae pv actinidiae biovar 3) was isolated in Tuscany in 2015, as reported by Campigli et al., 2023.
(§6) Bacterial cells were grown in 50 mL of Nutrient Sucrose (5% w/v) for 48 h at 180 rpm at 27 °C. Cell suspensions were diluted to an A 600 of 1 (10^7 cfu/mL) in water, and 1 mL aliquots were centrifuged for 5 min at 15,000 × g at 4 °C. The supernatant was discarded, while the pellet was stored at −20 °C for further analysis.
as §4, with “For macroscopic evaluation of levan synthesis inhibition, a 10 μL drop of lysates was applied on an agar sucrose (5% w/v) plate alone or with 100 μM TPIS (3). A picture was taken after 72 h at 4 °C.” left out

[4] = tested on: CFBP1390 whole cell lysate; test: Sucrose hydrolysis by whole cell lysate, CFBP1390; format: biochemical, P. syringae pv phaseolicola; settings: 100 μM, 60 mM sucrose
Procedure: as §5, §6
as §4, with “For macroscopic evaluation of levan synthesis inhibition, a 10 μL drop of lysates was applied on an agar sucrose (5% w/v) plate alone or with 100 μM TPIS (3). A picture was taken after 72 h at 4 °C.” left out

Jack bean α-mannosidase = settings: cited from earlier work
Lscγ [5] = biological target: T2, Lscγ; test: Macroscopic evaluation of levan synthesis by Lscγ on agar sucrose plate; format: biochemical, Pseudomonas syringae pv actinidiae biovar 3 (Psa3); settings: 100 μM, 10 μL drop of 1 μg/μL Lscγ, 24 h
Procedure: (§7) Inhibition of levan synthesis was monitored using a turbidity assay on a microtiter plate as reported by Luti et al. 2021 with slight modifications. The reaction was performed at 37 °C in 200 μL of 50 mM sodium acetate buffer at pH 5.0 containing 60 mM sucrose and 10 μg of purified Lscγ protein per mL of reaction mixture. The turbidity of the samples at 400 nm was recorded every 5 min using a BioTek Synergy H1 Hybrid Multimode Reader. The percent inhibition was determined at 60 min of incubation, at the maximum absorbance, and was determined as defined in the previous section, Sucrose Hydrolysis Assay. For the IC50 determinations, we used a 0–200 μM TPIS (3) concentration and defined the activity as previously reported. For macroscopic evaluation of levan synthesis inhibition, a 10 μL drop of 1 μg/μL Lscγ was applied on an agar sucrose (5% w/v) plate alone or with 100 μM TPIS (3). A picture was taken after 24 h at 4 °C.

KL103 whole cell lysate [6] = test: Macroscopic levan synthesis by lysate on agar sucrose plate, KL103; format: biochemical, P. syringae pv actinidiae biovar 3; settings: 100 μM, 72 h
Procedure: as §4

KL103 whole cell lysate [7] = test: Sucrose hydrolysis by whole cell lysate, KL103; format: biochemical, P. syringae pv actinidiae biovar 3; settings: 100 μM, 60 mM sucrose
Procedure: as §5, §6
as §4, with “For macroscopic evaluation of levan synthesis inhibition, a 10 μL drop of lysates was applied on an agar sucrose (5% w/v) plate alone or with 100 μM TPIS (3). A picture was taken after 72 h at 4 °C.” left out

[8] = tested on: CFBP8414 whole cell lysate; test: Macroscopic levan synthesis by lysate on agar sucrose plate, CFBP8414; format: biochemical, P. syringae pv actinidiae biovar 5; settings: 100 μM, 72 h
Procedure: as §4

Lscγ [9] = biological target: T2, Lscγ; test: Levan synthesis turbidity assay with Lscγ; format: biochemical, Pseudomonas syringae pv actinidiae biovar 3 (Psa3)
Procedure: as §7

T1 sequence (A0A2V0R8Q9 whole entry): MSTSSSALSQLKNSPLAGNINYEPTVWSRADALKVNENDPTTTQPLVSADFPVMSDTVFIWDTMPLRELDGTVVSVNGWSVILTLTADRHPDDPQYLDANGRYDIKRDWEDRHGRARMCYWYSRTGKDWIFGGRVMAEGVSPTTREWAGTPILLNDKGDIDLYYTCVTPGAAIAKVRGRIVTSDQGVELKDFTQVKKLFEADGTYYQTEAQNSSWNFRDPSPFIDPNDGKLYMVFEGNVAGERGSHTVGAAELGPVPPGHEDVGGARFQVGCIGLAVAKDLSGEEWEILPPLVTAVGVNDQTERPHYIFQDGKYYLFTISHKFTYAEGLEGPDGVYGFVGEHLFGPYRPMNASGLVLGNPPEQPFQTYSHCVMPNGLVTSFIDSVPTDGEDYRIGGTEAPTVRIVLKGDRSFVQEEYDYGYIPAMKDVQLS
T2 sequence (A0A2V0R8Y2 whole entry): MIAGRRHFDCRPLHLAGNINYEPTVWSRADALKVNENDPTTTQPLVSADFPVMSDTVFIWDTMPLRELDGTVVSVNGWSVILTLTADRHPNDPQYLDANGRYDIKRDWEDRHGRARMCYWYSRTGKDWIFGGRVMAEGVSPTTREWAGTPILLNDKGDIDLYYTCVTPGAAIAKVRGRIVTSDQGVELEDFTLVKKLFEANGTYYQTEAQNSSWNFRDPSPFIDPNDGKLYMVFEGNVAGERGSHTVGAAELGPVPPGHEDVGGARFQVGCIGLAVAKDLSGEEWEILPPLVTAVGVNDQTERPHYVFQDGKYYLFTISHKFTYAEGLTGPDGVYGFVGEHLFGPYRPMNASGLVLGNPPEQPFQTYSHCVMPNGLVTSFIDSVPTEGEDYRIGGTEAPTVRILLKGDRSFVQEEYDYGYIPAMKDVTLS

OC[C@H]1NC[C@@H](O)[C@@H]1O [Compound 1, 1,4-dideoxy-1,4-imino-D-arabinitol]
% Residual activity (sucrose hydrolysis), Lscβ (Lscβ; pH 7.0): 103 ± 6% | % Residual activity (sucrose hydrolysis), Lscβ (Lscβ; pH 7.0, listed as DAB-1 (1)): do not affect Lscβ activity at all | IC50 (Lscβ; pH 7.0): > 100 µM | % Residual activity (sucrose hydrolysis), Lscγ (Lscγ [1]; pH 7.0): 101 ± 12% | IC50 (Lscγ [1]; pH 7.0): > 100 µM

OC[C@@H]1[C@@H](O)[C@H](O)CN1CCO[C@@H]1O[C@H](CO)[C@@H](O)[C@H](O)[C@H]1O [Compound 2]
IC50 (Lscβ; pH 7.0): > 100 µM | % Residual activity (sucrose hydrolysis), Lscγ (Lscγ [1]; pH 7.0): 85 ± 8% | IC50 (Lscγ [1]; pH 7.0): > 100 µM

OC[C@@H]1[C@@H](O)[C@H](O)CN1CCCCCCn1cc(COCC(COCc2cn(CCCCCCN3C[C@@H](O)[C@H](O)[C@H]3CO)nn2)(COCc2cn(CCCCCCN3C[C@@H](O)[C@H](O)[C@H]3CO)nn2)COCc2cn(CCCCCCN3C[C@@H](O)[C@H](O)[C@H]3CO)nn2)nn1 [Compound 3]
% Residual activity (sucrose hydrolysis), Lscβ (Lscβ; pH 7.0): 49 ± 5% | IC50 (Lscβ; pH 7.0): 22 µM and 22.4 µM | inhibition mechanism, Lscβ (Lscβ; KMapp increases, Vmaxapp does not vary, versus sucrose): competitive inhibitor | Ki (Lscβ; secondary plot, pH 7.0, read-out: K i, sucrose hydrolysis, Lscβ): 29 µM | rp/n (rp divided by valency), Lscβ (Lscβ; sucrose hydrolysis): > 11 | macroscopic levan synthesis, CFBP1390 lysate [2]: able to limit levan synthesis | residual sucrose hydrolysis activity, CFBP8414 lysate [3]: 44 ± 11% | residual sucrose hydrolysis activity, CFBP1390 lysate [4]: 55 ± 3% | IC50 (Jack bean α-mannosidase; already demonstrated in earlier work): 34 µM | rp/n, Jack bean α-mannosidase (Jack bean α-mannosidase; relative potency with respect to monovalent counterpart per active unit, earlier work): 10 | macroscopic levan production by Lscγ on agar sucrose plate (Lscγ [5]): limits levan production | macroscopic levan synthesis, KL103 lysate (KL103 whole cell lysate [6]): able to limit levan synthesis | residual sucrose hydrolysis activity, KL103 lysate (KL103 whole cell lysate [7]): 54 ± 7% | macroscopic levan synthesis, CFBP8414 lysate [8]: able to limit levan synthesis | % Residual activity (sucrose hydrolysis), Lscγ (Lscγ [1]; pH 7.0): 36 ± 5% | IC50 (Lscγ [1]; pH 7.0): 60.9 µM | inhibition mechanism, Lscγ (Lscγ [1]; KMapp increases, Vmaxapp not affected, versus sucrose): competitive inhibitor | Ki (Lscγ [1]; secondary plot, pH 7.0, read-out: K i, sucrose hydrolysis, Lscγ): 20 µM | residual polymerization activity (levan production), Lscγ (Lscγ [9]; 100 μM, pH 5.0, 60 min): 46 ± 3% | IC50 (Lscγ [9]; pH 5.0, 60 min of incubation, estimated, read-out: IC50, polymerization activity of Lscγ): 37 µM

OCCc1cn(CCCCCCN2C[C@@H](O)[C@H](O)[C@H]2CO)nn1 [Compound 4]
% Residual activity (sucrose hydrolysis), Lscβ (Lscβ; pH 7.0): 93 ± 12% | IC50 (Lscβ; pH 7.0): > 1000 µM | inhibition at 100 µM (Lscβ; pH 7, read-out: inhibitory activity on sucrose hydrolysis, Lscβ): ~7% | remaining activity at 1000 µM (Lscβ; read-out: residual activity at 1 mM, Lscβ): 40% | % Residual activity (sucrose hydrolysis), Lscγ (Lscγ [1]; pH 7.0): 126 ± 50% | % Residual activity (sucrose hydrolysis), Lscγ (Lscγ [1]; pH 7.0, listed as PIS (4)): does not inhibit | IC50 (Lscγ [1]; pH 7.0): > 1000 µM

OC[C@H]1O[C@@](CO)(O[C@H]2O[C@H](CO)[C@@H](O)[C@H](O)[C@H]2O)[C@@H](O)[C@@H]1O [Sucrose]
KMapp of Lscβ for sucrose (Lscβ; substrate, pH 7.0): KMapp (mM) 57 ± 11 | KMapp of Lscγ for sucrose (Lscγ [1]; substrate, pH 7.0): KMapp(mM) 59 ± 12
